In PubChem BioAssay (NCI):
Values joined by “and” are separate entries in the source; they are usually repeats but may differ in a detail not shown here. Equal values may be shown once.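 Cultured in 96-well plates, cells were exposed to test compound for 48 hours across five concentrations. Here, GI50 denotes the concentration required for 50% inhibition of growth. The concentration for full growth arrest is given as TGI.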

What was measured:
Experiment in all cases: NCI anticancer screen, dose series, 48 h
A498 renal = tested on: A498 renal
HCT-15 colon = tested on: HCT-15 colon
OVCAR-4 ovarian = tested on: OVCAR-4 ovarian
SN12C renal = tested on: SN12C renal
OVCAR-3 ovarian = tested on: OVCAR-3 ovarian
SW-620 colon = tested on: SW-620 colon
OVCAR-8 ovarian = tested on: OVCAR-8 ovarian
SF-268 CNS = tested on: SF-268 CNS
MDA-MB-231 breast = tested on: MDA-MB-231 breast

| Structure (SMILES) | TGI (A498 renal) [µM] | GI50 (HCT-15 colon) [µM] | TGI (HCT-15 colon) | GI50 (OVCAR-4 ovarian) [µM] | TGI (OVCAR-4 ovarian) | GI50 (SN12C renal) [µM] | TGI (SN12C renal) | TGI (OVCAR-3 ovarian) | GI50 (SW-620 colon) [µM] | TGI (SW-620 colon) | GI50 (OVCAR-8 ovarian) [µM] | TGI (OVCAR-8 ovarian) | GI50 (SF-268 CNS) [µM] | TGI (SF-268 CNS) | GI50 (A498 renal) [µM] | GI50 (OVCAR-3 ovarian) [µM] | TGI (MDA-MB-231 breast) [µM] |
| --- | --- | --- | --- | --- | --- | --- | --- | --- | --- | --- | --- | --- | --- | --- | --- | --- | --- |
| CC(=O)OCC1OC(OC2CC3C(C)(C)C(OC(C)=O)CC[C@]3(C)C3CCC45CC4(CC[C@H]5C(C)CC(O)C4OC4(C)C)[C@]23C)C(O)C(O)C1O (some centres not stated) | 10.2 | 4.04 | 6 µM and 13.3 µM | 15.3 | 6.27 µM and 38.9 µM | 4.44 | 8.75 µM and 14.9 µM | 8.76 µM and 7.08 µM | 3.46 | 9.98 µM and 11.3 µM | 3 | 8.24 µM and 9.67 µM | 3.67 | 9.14 µM and 14.5 µM | – | – | – |
| O=C([O-])c1ccc2c(c1)-c1nc-2nc2[n-]c(nc3nc(nc4[n-]c(n1)c1ccc(C(=O)[O-])cc41)-c1cc(C(=O)[O-])ccc1-3)c1ccc(C(=O)[O-])cc21.[Fe+2] | > 50 | > 22.3 | > 32.1 µM | 49.2 | > 50 µM | > 50 | > 50 µM | > 50 µM | > 21.7 | > 31.5 µM | > 50 | > 50 µM | > 50 | > 50 µM | > 50 | > 50 | – |
| CC1CCCC(C(O)CC2CC(=O)N(c3ccccc3)C(=O)C2)C1=O (configuration not stated) | > 100 | – | – | – | > 100 µM | – | > 100 µM | > 100 µM | – | > 100 µM | – | > 100 µM | – | > 100 µM | – | – | – |
| CN(C)c1ccc(/C=C2\CNC/C(=C\c3ccc(N(C)C)cc3)C2=O)cc1 | 39.5 | – | 15.5 µM | – | 29.7 µM | – | 75.4 µM | > 100 µM | – | – | – | 43.7 µM | – | – | – | – | – |
| CCc1cccc(CC)c1NC(=S)NC(=O)c1ccc(Br)cc1 | > 100 | – | > 78.4 µM | – | > 50.4 µM | – | > 81.4 µM | > 100 µM | – | > 100 µM | – | > 100 µM | – | > 100 µM | – | – | > 100 |
| N#C/C(=C/c1cccnc1)C(=O)c1ccccc1 | – | – | > 100 µM | – | > 100 µM | – | > 100 µM | > 100 µM | – | > 100 µM | – | > 100 µM | – | > 100 µM | – | – | – |
| COc1ccc(NC(=O)C(=O)NNC(=O)c2sc(NNC(C)=O)nc2C)c([N+](=O)[O-])c1 | > 100 | – | > 100 µM | – | > 100 µM | – | > 100 µM | > 100 µM | – | > 100 µM | – | > 100 µM | – | > 100 µM | – | – | – |
